Source: article PMC12217481, “Structure and mechanism of taniborbactam inhibition of the cefepime-hydrolyzing, partial R2-loop deletion Pseudomonas-derived cephalosporinase variant PDC-88” (Antimicrobial Agents and Chemotherapy, 2025)
Converted amounts (≈) assume the structure as drawn. Where two headings read alike, the source gives them in different places.

Columns and labels:
[1] = tested on: E. coli DH10B/pTU501 (vector); assay: Broth microdilution MIC, isogenic E. coli empty vector control; format: cell-based; details: Escherichia coli
Protocol: (§1) Genetic constructs used for minimum inhibitory concentration (MIC) testing were designed by Venatorx Pharmaceuticals and codon-optimized for use in E. coli and synthesized by Twist Bioscience as described previously ([9]). […] DH10B cells expressing an empty pET24a(+) vector (Novagen) were also grown, and the plasmid purified. Both pCR4-TOPO-PDC-88 and empty pET24a(+) were cut with BamHI and NdeI, the digests run on low-melting point agarose gels, and the bands of interest excised and ligated to yield a PDC-88 expressing pET24a(+) construct with the His tag removed. The PDC-3 expression construct was created in a similar manner but starting with a previously described pBC SK(−) vector ([42]). The final plasmids were grown in E. coli DH10B cells and purified.
(§2) Modal broth microdilution MICs (or median broth microdilution MICs where appropriate) were determined in accordance with Clinical and Laboratory Standards Institute (CLSI) M07 guidelines ([43]). Isogenic E. coli DH10B cells expressing the abovementioned plasmid-encoded PDC constructs were used. […] CLSI quality control strains Escherichia coli NCTC 13353, E. coli ATCC 35218, and Klebsiella pneumoniae ATCC 700603 were used during testing ([24]).

[2] = tested on: E. coli DH10B/pTU606 (PDC-1); assay: Broth microdilution MIC, isogenic E. coli expressing PDC-1; format: cell-based; details: Escherichia coli
Protocol: as §1, §2

[3] = tested on: E. coli DH10B/pTU609 (PDC-3); assay: Broth microdilution MIC, isogenic E. coli expressing PDC-3; format: cell-based; details: Escherichia coli
Protocol: as §1, §2

[4] = tested on: E. coli DH10B/pTU627 (PDC-90); assay: Broth microdilution MIC, isogenic E. coli expressing PDC-90; format: cell-based; details: Escherichia coli
Protocol: as §1, §2

E. coli NCTC 13353 = assay: Broth microdilution MIC, CLSI quality control strain; format: cell-based; details: Escherichia coli
Protocol: as §2

PDC-3 = biological target: T1, PDC-3 (Pseudomonas aeruginosa, UniProt P24735, T105A); assay: Timed ESI-MS of acyl-enzyme formation, PDC-3; format: biochemical; details: timed ESI-MS, 1 to 30 min (ATM to 60 min)
T1 construct: The PDC-3 expression construct was created in a similar manner but starting with a previously described pBC SK(−) vector; made in house; host or cells: E. coli BL21-CodonPlus (DE3)-RP, pET24a(+)
Protocol: Timed ESI-MS experiments allow tracking of the reaction over time and determination of product modification, enabling the elucidation of mechanistic detail. Time courses were collected for both PDC-3 and PDC-88 with FEP (Fig. 4), CAZ (Fig. S1), TOL (Fig. S2), and ATM (Fig. S3). Substrate modification (here, loss of the R2 group) was determined based on differences between masses of apo and acyl-enzyme peaks (Fig. S4). […] Based on the differences in mass between the apo enzyme peaks, the acyl-enzyme peaks, and the molecular masses of each substrate, the mass of the adducts was determined and used to predict any portion of the substrate molecule that might be lost during the reaction (Fig. S4). As expected ([26][–][28]), all three cephalosporin antibiotics (FEP, CAZ, and TOL) lost their R2 groups during the reaction, while ATM (the sole monobactam) maintained its initial mass.
Five micrograms of PDC-3 or PDC-88 was incubated at the indicated molar ratio (1:2 to 1:100 PDC:β-lactam) in a total volume of 20 µL in 1× PBS at pH 7.4 at room temperature for the duration of the indicated time points. Reactions were quenched with the addition of 10 µL acetonitrile and added to 1 mL of 0.1% formic acid in water.
Data were collected using a Waters Synapt G2-Si quadrupole time-of-flight (Q-TOF) mass spectrometer and Waters Acquity UPLC BEH C18 1.7 µm column (2.1 by 100 mm). MassLynx V4.1 was used to deconvolute protein peaks. The tune settings for each sample were as follows: capillary voltage of 3.5 kV, sampling cone voltage of 35 V, source offset of 35 V, source temperature of 100°C, desolvation temperature of 500°C, cone gas flow rate of 100 L/h, desolvation gas flow rate of 800 L/h, and nebulizer bar at 6.0. Mobile phase A was 0.1% formic acid in water. Mobile phase B was 0.1% formic acid in acetonitrile. The mass accuracy of this system is ±5 Da.

P. aeruginosa isolates = details: 200 well-characterized P. aeruginosa isolates; cited from earlier work

T1 sequence (P24735 27-397 T105A): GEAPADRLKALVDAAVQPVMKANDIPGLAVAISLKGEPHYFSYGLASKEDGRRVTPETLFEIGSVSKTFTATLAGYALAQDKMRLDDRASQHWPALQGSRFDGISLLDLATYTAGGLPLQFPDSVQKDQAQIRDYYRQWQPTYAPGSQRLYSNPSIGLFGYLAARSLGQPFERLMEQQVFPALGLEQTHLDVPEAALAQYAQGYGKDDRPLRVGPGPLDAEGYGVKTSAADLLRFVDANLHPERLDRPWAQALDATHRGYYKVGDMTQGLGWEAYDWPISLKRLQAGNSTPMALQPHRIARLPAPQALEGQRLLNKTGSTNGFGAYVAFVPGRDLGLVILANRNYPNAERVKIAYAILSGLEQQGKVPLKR

CO/N=C(\C(=O)N[C@@H]1C(=O)N2C(C(=O)[O-])=C(C[N+]3(C)CCCC3)CS[C@H]12)c1csc(N)n1 [FEP, cefepime]
MIC ([1]; read-out: MIC FEP AVI): 0.12 µg/mL (≈ 0.25 µM)
MIC ([1]; read-out: MIC FEP Alone): 0.12 µg/mL (≈ 0.25 µM)
MIC ([1]; read-out: MIC FEP TAN): 0.12 µg/mL (≈ 0.25 µM)
MIC ([1]; read-out: MIC FEP TZB): 0.12 µg/mL (≈ 0.25 µM)
MIC ([2]; read-out: MIC FEP TZB): 2 µg/mL (≈ 4.16 µM)
MIC ([2]; E. coli DH10B/pTU606 (PDC-1), read-out: MIC FEP Alone): 2 µg/mL (≈ 4.16 µM)
MIC ([3]; read-out: MIC FEP AVI): 0.25 µg/mL (≈ 0.52 µM)
MIC ([3]; read-out: MIC FEP TZB): 2 µg/mL (≈ 4.16 µM)
MIC ([3]; E. coli DH10B/pTU609 (PDC-3), FEP with TAN at constant 4 µg/mL, read-out: MIC FEP TAN): 0.25 µg/mL (≈ 0.52 µM)
MIC ([3]; E. coli DH10B/pTU609 (PDC-3), read-out: MIC FEP Alone): 2 µg/mL (≈ 4.16 µM)
MIC ([4]; read-out: MIC FEP AVI): 0.5 µg/mL (≈ 1.04 µM)
MIC ([4]; read-out: MIC FEP TZB): 32 µg/mL (≈ 66.6 µM)
MIC ([4]; E. coli DH10B/pTU627 (PDC-90), FEP with TAN at constant 4 µg/mL, * median value reported, read-out: MIC FEP TAN): 0.5 µg/mL (≈ 1.04 µM)
MIC ([4]; E. coli DH10B/pTU627 (PDC-90), read-out: MIC FEP Alone): 64 µg/mL (≈ 133 µM)
MIC (E. coli NCTC 13353; NCTC13353, read-out: MIC FEP Alone): 64 µg/mL (≈ 133 µM)
MIC (E. coli NCTC 13353; NCTC13353, read-out: MIC FEP TAN): 0.12 µg/mL (≈ 0.25 µM)
acyl-enzyme complex formation and deacylation (PDC-3): did not form an acyl-enzyme complex
susceptibility of isolates (P. aeruginosa isolates): 1.5%
